The values below are quoted from earlier work in US8435963B2, “Weight loss compositions and uses thereof” (priority 2008, dated 2013).

Where a name gives a salt, the structure may show the parent alone. Read-outs that look alike come from different tables or passages of the source.

`COC(=O)[C@@H]1[C@H]2C[C@H]3c4[nH]c5cc(O)ccc5c4CCN3C[C@@H]2CC[C@@H]1O` [11-Hydroxy yohimbine]: under “human, in vivo”, the half-life is 8 to 11 h.

On to `COC(=O)[C@@H]1[C@H]2C[C@H]3c4[nH]c5ccccc5c4CCN3C[C@@H]2CC[C@@H]1O` [yohimbine HCl, 17α-hydroxy-yohimban-16α-carboxylic acid methyl ester], for which the half-life (humans) was 2.5 h.

In general, half-life refers to the time needed for the level to fall by half in the phase considered.
